Data: patent US20240122857A1, “PHARMACEUTICAL FORMULATIONS OF INDOLEAMINE 2, 3-DIOXYGENASE INHIBITORS” (BRISTOL-MYERS SQUIBB COMPANY, priority 2019, published 2024)
Structures can show the parent of a compound that is named as a salt.

Assay: Excipient compatibility study
Format: physicochemical

chemical stability with commonly used pharmaceutical excipients: acceptable chemical stability
SMILES: C[C@@H](C(=O)Nc1ccc(Cl)cc1)[C@H]1CC[C@@H](c2ccnc3ccc(F)cc32)CC1 [Compound I-MSA, (R)—N-(4-chlorophenyl)-2-((1S, 4S)-4-(6-fluoroquinolin-4-yl)cyclohexyl) propanamide methane sulfonic acid salt]
